Experiments:
Experiment in all cases: cells
[1] = tested on: COLO-800; type: functional, cell-based, Homo sapiens; conditions: Homo sapiens, COLO-800;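 also: growth inhibition of COLO-800 cells, read out with a cell viability assay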
Description: SANGER: Inhibition of human COLO-800 cell growth in a cell viability assay.

[2] = tested on: COLO-824; type: functional, cell-based, Homo sapiens; conditions: Homo sapiens, COLO-824
Description: SANGER: Inhibition of human COLO-824 cell growth in a cell viability assay.

[3] = tested on: CW-2; type: functional, cell-based, Homo sapiens; conditions: Homo sapiens, CW-2;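 also: growth inhibition of CW-2 cells, read out by a cell viability assay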
Description: SANGER: Inhibition of human CW-2 cell growth in a cell viability assay.

[4] = tested on: Calu-6; type: functional, cell-based, Homo sapiens; conditions: Homo sapiens, Calu-6;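 also: growth of human Calu-6 cells, read out by a cell viability assay, IC50 marking inhibition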
Description: SANGER: Inhibition of human Calu-6 cell growth in a cell viability assay.

[5] = tested on: D-247MG; type: functional, cell-based; conditions: Homo sapiens
Description: SANGER: Inhibition of human D-247MG cell growth in a cell viability assay.

[6] = tested on: DOHH-2; type: functional, cell-based, Homo sapiens; conditions: Homo sapiens, DOHH-2;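 also: growth inhibition of human DOHH-2 cells, read out with a cell viability assay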
Description: SANGER: Inhibition of human DOHH-2 cell growth in a cell viability assay.

[7] = tested on: DU-4475; type: functional, cell-based, Homo sapiens; conditions: Homo sapiens, DU-4475
Description: SANGER: Inhibition of human DU-4475 cell growth in a cell viability assay.

[8] = tested on: EKVX; type: functional, cell-based, Homo sapiens; conditions: Homo sapiens, EKVX;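 also: growth inhibition of human EKVX cells, read out with a cell viability assay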
Description: SANGER: Inhibition of human EKVX cell growth in a cell viability assay.

[9] = tested on: EM-2; type: functional, cell-based, Homo sapiens; conditions: Homo sapiens, EM-2;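 also: growth inhibition of EM-2 cells, read out with a cell viability assay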
Description: SANGER: Inhibition of human EM-2 cell growth in a cell viability assay.

[10] = tested on: ES4; type: functional, cell-based, Homo sapiens; conditions: Homo sapiens, ES4;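 also: growth inhibition of human ES4 cells, read out by a cell viability assay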
Description: SANGER: Inhibition of human ES4 cell growth in a cell viability assay.

[11] = tested on: ES5; type: functional, cell-based, Homo sapiens; conditions: Homo sapiens, ES5;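 also: growth inhibition of human ES5 cells, read out by a cell viability assay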
Description: SANGER: Inhibition of human ES5 cell growth in a cell viability assay.

[12] = tested on: ES6; type: functional, cell-based; conditions: Homo sapiens;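 also: growth inhibition of human ES6 cells, read out with a cell viability assay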
Description: SANGER: Inhibition of human ES6 cell growth in a cell viability assay.

[13] = tested on: GCIY; type: functional, cell-based, Homo sapiens; conditions: Homo sapiens, GCIY;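 also: growth inhibition of the human GCIY cell line, read out by a cell viability assay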
Description: SANGER: Inhibition of human GCIY cell growth in a cell viability assay.

[14] = tested on: HCC1187; type: functional, cell-based, Homo sapiens; conditions: Homo sapiens, HCC1187;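 also: growth inhibition of HCC1187 cells, read out with a cell viability assay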
Description: SANGER: Inhibition of human HCC1187 cell growth in a cell viability assay.

[15] = tested on: HDLM-2; type: functional, cell-based, Homo sapiens; conditions: Homo sapiens, HDLM-2;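 also: cell viability assay measuring suppression of HDLM-2 proliferation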
Description: SANGER: Inhibition of human HDLM-2 cell growth in a cell viability assay.

[16] = tested on: HT-144; type: functional, cell-based, Homo sapiens; conditions: Homo sapiens, HT-144
Description: SANGER: Inhibition of human HT-144 cell growth in a cell viability assay.

[17] = tested on: JVM-2; type: functional, cell-based, Homo sapiens; conditions: Homo sapiens, JVM-2;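 also: growth inhibition of JVM-2 cells determined by a cell viability assay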
Description: SANGER: Inhibition of human JVM-2 cell growth in a cell viability assay.

[18] = tested on: KARPAS-299; type: functional, cell-based, Homo sapiens; conditions: Homo sapiens, KARPAS-299
Description: SANGER: Inhibition of human KARPAS-299 cell growth in a cell viability assay.

[19] = tested on: LB831-BLC; type: functional, cell-based, Homo sapiens; conditions: Homo sapiens, LB831-BLC;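 also: growth inhibition of LB831-BLC cells, read out with a cell viability assay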
Description: SANGER: Inhibition of human LB831-BLC cell growth in a cell viability assay.

[20] = tested on: LS-123; type: functional, cell-based, Homo sapiens; conditions: Homo sapiens, LS-123
Description: SANGER: Inhibition of human LS-123 cell growth in a cell viability assay.

[21] = tested on: LS-513; type: functional, cell-based, Homo sapiens; conditions: Homo sapiens, LS-513
Description: SANGER: Inhibition of human LS-513 cell growth in a cell viability assay.

[22] = tested on: Lu-65; type: functional, cell-based, Homo sapiens; conditions: Homo sapiens, Lu-65;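 also: growth inhibition of Lu-65 cancer cells, read out by a cell viability assay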
Description: SANGER: Inhibition of human LU-65 cell growth in a cell viability assay.

[23] = tested on: MC116; type: functional, cell-based, Homo sapiens; conditions: Homo sapiens, MC116;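 also: growth inhibition of MC116 cells, read out with a cell viability assay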
Description: SANGER: Inhibition of human MC116 cell growth in a cell viability assay.

[24] = tested on: MOLT-4; type: functional, cell-based, Homo sapiens; conditions: Homo sapiens, MOLT-4;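 also: growth inhibition of MOLT-4 cells, determined with a cell viability readout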
Description: SANGER: Inhibition of human MOLT-4 cell growth in a cell viability assay.

[25] = tested on: MZ1-PC; type: functional, cell-based, Homo sapiens; conditions: Homo sapiens, MZ1-PC;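 also: cell viability assay measuring growth inhibition of human MZ1-PC cells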
Description: SANGER: Inhibition of human MZ1-PC cell growth in a cell viability assay.

[26] = tested on: NB10; type: functional, cell-based, Homo sapiens; conditions: Homo sapiens, NB10;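 also: growth inhibition of NB10 cells, read out by a cell viability assay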
Description: SANGER: Inhibition of human NB10 cell growth in a cell viability assay.

[27] = tested on: NCI-H1770; type: functional, cell-based, Homo sapiens; conditions: Homo sapiens, NCI-H1770;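 also: growth inhibition of NCI-H1770 cells determined with a viability readout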
Description: SANGER: Inhibition of human NCI-H1770 cell growth in a cell viability assay.

[28] = tested on: NCI-H2126; type: functional, cell-based, Homo sapiens; conditions: Homo sapiens, NCI-H2126;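 also: growth inhibition of the cancer cell line, determined with a cell viability readout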
Description: SANGER: Inhibition of human NCI-H2126 cell growth in a cell viability assay.

[29] = tested on: NCI-H23; type: functional, cell-based, Homo sapiens; conditions: Homo sapiens, NCI-H23;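 also: cell viability assay measuring growth inhibition of NCI-H23 cells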
Description: SANGER: Inhibition of human NCI-H23 cell growth in a cell viability assay.

[30] = tested on: NCI-H747; type: functional, cell-based, Homo sapiens; conditions: Homo sapiens, NCI-H747;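 also: growth inhibition of human NCI-H747 cells, read out by a cell viability assay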
Description: SANGER: Inhibition of human NCI-H747 cell growth in a cell viability assay.

[31] = tested on: NCI-H82; type: functional, cell-based, Homo sapiens; conditions: Homo sapiens, NCI-H82;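 also: growth inhibition of NCI-H82 cells, measured with a cell viability readout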
Description: SANGER: Inhibition of human NCI-H82 cell growth in a cell viability assay.

[32] = tested on: SNU-5; type: functional, cell-based, Homo sapiens; conditions: Homo sapiens, SNU-5;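 also: cell viability readout used to measure growth inhibition in human NCI-SNU-5 cells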
Description: SANGER: Inhibition of human NCI-SNU-5 cell growth in a cell viability assay.

[33] = tested on: NTERA-2-cl-D1; type: functional, cell-based, Homo sapiens; conditions: Homo sapiens, NTERA-2-cl-D1;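 also: inhibition of cell growth, measured with a cell viability assay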
Description: SANGER: Inhibition of human NTERA-S-cl-D1 cell growth in a cell viability assay.

[34] = tested on: P30-OHK; type: functional, cell-based, Homo sapiens; conditions: Homo sapiens, P30-OHK;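 also: growth inhibition of the P30-OHK cell line, read out with a cell viability assay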
Description: SANGER: Inhibition of human P30-OHK cell growth in a cell viability assay.

[35] = tested on: QIMR-WIL; type: functional, cell-based, Homo sapiens; conditions: Homo sapiens, QIMR-WIL;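 also: growth inhibition of QIMR-WIL cells, read out with a cell viability assay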
Description: SANGER: Inhibition of human QIMR-WIL cell growth in a cell viability assay.

[36] = tested on: RXF 393; type: functional, cell-based, Homo sapiens; conditions: Homo sapiens, RXF 393;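 also: growth inhibition of human RXF 393 cells, read out with a cell viability assay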
Description: SANGER: Inhibition of human RXF393 cell growth in a cell viability assay.

[37] = tested on: SCH; type: functional, cell-based, Homo sapiens; conditions: Homo sapiens, SCH;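 also: growth inhibition of human SCH cells, read out in a cell viability assay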
Description: SANGER: Inhibition of human SCH cell growth in a cell viability assay.

[38] = tested on: SF-539; type: functional, cell-based, Homo sapiens; conditions: Homo sapiens, SF-539;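 also: Read-out is a cell viability assay, with IC50 reflecting inhibition of cell growth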
Description: SANGER: Inhibition of human SF539 cell growth in a cell viability assay.

[39] = tested on: SK-LMS-1; type: functional, cell-based, Homo sapiens; conditions: Homo sapiens, SK-LMS-1;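 also: growth inhibition of human SK-LMS-1 cells, read out with a cell viability assay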
Description: SANGER: Inhibition of human SK-LMS-1 cell growth in a cell viability assay.

[40] = tested on: SK-PN-DW; type: functional, cell-based, Homo sapiens; conditions: Homo sapiens, SK-PN-DW;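 also: growth inhibition measured with a viability assay on these cells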
Description: SANGER: Inhibition of human SK-PN-DW cell growth in a cell viability assay.

[41] = tested on: SNB-75; type: functional, cell-based, Homo sapiens; conditions: Homo sapiens, SNB-75;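 also: cell viability assay measuring growth inhibition of human SNB-75 cells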
Description: SANGER: Inhibition of human SNB75 cell growth in a cell viability assay.

[42] = tested on: A3-KAW; type: functional, cell-based, Homo sapiens; conditions: Homo sapiens, A3-KAW;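 also: growth inhibition of human A3-KAW cells, read out with a cell viability assay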
Description: SANGER: Inhibition of human A3-KAW cell growth in a cell viability assay.

[43] = tested on: ACN; type: functional, cell-based, Homo sapiens; conditions: Homo sapiens, ACN;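 also: growth inhibition of the human ACN cell line, read out via cell viability testing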
Description: SANGER: Inhibition of human ACN cell growth in a cell viability assay.

[44] = tested on: BB30-HNC; type: functional, cell-based, Homo sapiens; conditions: Homo sapiens, BB30-HNC;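 also: growth inhibition of the cultured cell line, read out by a cell viability assay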
Description: SANGER: Inhibition of human BB30-HNC cell growth in a cell viability assay.

[45] = tested on: TE-10; type: functional, cell-based, Homo sapiens; conditions: Homo sapiens, TE-10;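 also: growth inhibition of TE-10 cells, measured by a cell viability assay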
Description: SANGER: Inhibition of human TE-10 cell growth in a cell viability assay.

[46] = tested on: TE-11; type: functional, cell-based; conditions: Homo sapiens;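 also: growth inhibition of human TE-11 cells, read out by a cell viability assay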
Description: SANGER: Inhibition of human TE-11 cell growth in a cell viability assay.

[47] = tested on: TE-12; type: functional, cell-based, Homo sapiens; conditions: Homo sapiens, TE-12;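 also: growth inhibition of TE-12 cells, read out by a cell viability assay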
Description: SANGER: Inhibition of human TE-12 cell growth in a cell viability assay.

[48] = tested on: TE-5; type: functional, cell-based, Homo sapiens; conditions: Homo sapiens, TE-5;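 also: inhibition of cell growth, read out by a cell viability assay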
Description: SANGER: Inhibition of human TE-5 cell growth in a cell viability assay.

[49] = tested on: TE-8; type: functional, cell-based, Homo sapiens; conditions: Homo sapiens, TE-8;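 also: growth inhibition of TE-8 cells, measured with a cell viability readout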
Description: SANGER: Inhibition of human TE-8 cell growth in a cell viability assay.

[50] = tested on: HCC2157; type: functional, cell-based, Homo sapiens; conditions: Homo sapiens, HCC2157;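 also: growth inhibition of the cancer cell line, read out as cell viability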
Description: SANGER: Inhibition of human HCC2157 cell growth in a cell viability assay.

NC(=O)Nc1cc(-c2cccc(F)c2)sc1C(=O)N[C@H]1CCCNC1 [AZD-7762] was tested, and the IC50 [1] was 603 nM, the IC50 [2] was > 2000 nM and the IC50 [3] was > 2000 nM. The IC50 [4] was 1410 nM, the IC50 [5] was > 2000 nM and the IC50 [6] was 131 nM. The IC50 [7] was 349 nM, the IC50 [8] was > 2000 nM and the IC50 [9] was 99 nM. For the same compound, the IC50 [10] was 32.5 nM, the IC50 [11] was 135 nM and the IC50 [12] was 442 nM. It also gave an IC50 [13] of 1390 nM, an IC50 [14] of 967 nM and an IC50 [15] of 813 nM. For the same compound, the IC50 [16] was 338 nM, the IC50 [17] was > 2000 nM and the IC50 [18] was > 2000 nM. For the same compound, the IC50 [19] was > 2000 nM, the IC50 [20] was 1810 nM and the IC50 [21] was 749 nM. For the same compound, the IC50 [22] was > 2000 nM, the IC50 [23] was 257 nM and the IC50 [24] was 239 nM. The IC50 [25] was > 2000 nM, the IC50 [26] was 591 nM and the IC50 [27] was > 2000 nM. For the same compound, the IC50 [28] was > 2000 nM, the IC50 [29] was 248 nM and the IC50 [30] was > 2000 nM. For the same compound, the IC50 [31] was > 2000 nM, the IC50 [32] was > 2000 nM and the IC50 [33] was > 2000 nM. For the same compound, the IC50 [34] was 132 nM, the IC50 [35] was 163 nM and the IC50 [36] was 290 nM. For the same compound, the IC50 [37] was 1330 nM, the IC50 [38] was 137 nM and the IC50 [39] was > 2000 nM. For the same compound, the IC50 [40] was 119 nM, the IC50 [41] was 1200 nM and the IC50 [42] was 88.1 nM. It also gave an IC50 [43] of 172 nM, an IC50 [44] of 315 nM and an IC50 [45] of 910 nM. For the same compound, the IC50 [46] was 453 nM, the IC50 [47] was > 2000 nM and the IC50 [48] was 1420 nM. It also gave an IC50 [49] of 1120 nM.

CN(NC(=O)CC(=O)NN(C)C(=S)c1ccccc1)C(=S)c1ccccc1 [ELESCLOMOL] was tested, and the IC50 [1] was 29.9 nM, the IC50 [2] was 71.8 nM and the IC50 [3] was > 200 nM. The IC50 [4] was > 200 nM, the IC50 [5] was 24.7 nM and the IC50 [6] was > 200 nM. The IC50 [7] was 112 nM, the IC50 [8] was 39.5 nM and the IC50 [9] was > 200 nM. For the same compound, the IC50 [10] was 4.39 nM, the IC50 [11] was 11.8 nM and the IC50 [12] was 40 nM. For the same compound, the IC50 [13] was > 200 nM, the IC50 [14] was 79.3 nM and the IC50 [15] was > 200 nM. For the same compound, the IC50 [16] was 13 nM, the IC50 [17] was > 200 nM and the IC50 [18] was 37.4 nM. The IC50 [19] was 27.7 nM, the IC50 [20] was 48.5 nM and the IC50 [21] was 82 nM. The IC50 [22] was > 200 nM, the IC50 [23] was > 200 nM and the IC50 [24] was 105 nM. For the same compound, the IC50 [25] was 144 nM, the IC50 [26] was 15.2 nM and the IC50 [27] was > 200 nM. The IC50 [28] was 16.3 nM, the IC50 [29] was 12.2 nM and the IC50 [30] was 57.4 nM. For the same compound, the IC50 [31] was > 200 nM, the IC50 [32] was > 200 nM and the IC50 [33] was 19.4 nM. For the same compound, the IC50 [34] was > 200 nM, the IC50 [35] was 32.9 nM and the IC50 [36] was 13.4 nM. The IC50 [37] was > 200 nM, the IC50 [38] was 24.4 nM and the IC50 [39] was > 200 nM. It also gave an IC50 [40] of 9.02 nM, an IC50 [41] of 105 nM and an IC50 [42] of 86.5 nM. For the same compound, the IC50 [43] was 11.7 nM, the IC50 [44] was 35.3 nM and the IC50 [45] was > 200 nM. For the same compound, the IC50 [46] was 46.1 nM, the IC50 [47] was > 200 nM and the IC50 [48] was 15 nM. The IC50 [49] was 5.41 nM.

With C/C(=C\c1csc(C)n1)[C@@H]1C[C@@H]2O[C@]2(C)CCC[C@H](C)[C@H](O)[C@@H](C)C(=O)C(C)(C)[C@@H](O)CC(=O)O1 [PATUPILONE] the IC50 [1] was > 32 nM, the IC50 [2] was 23.3 nM and the IC50 [3] was > 32 nM. For the same compound, the IC50 [4] was 7.14 nM, the IC50 [6] was 8.37 nM and the IC50 [7] was 2.38 nM. For the same compound, the IC50 [8] was > 32 nM, the IC50 [9] was > 32 nM and the IC50 [10] was 0.739 nM. The IC50 [11] was > 32 nM, the IC50 [12] was 11.2 nM and the IC50 [13] was 6.59 nM. It also gave an IC50 [14] of 22.6 nM, an IC50 [50] of 1.28 nM and an IC50 [15] of 19.5 nM. For the same compound, the IC50 [16] was 1.72 nM, the IC50 [17] was > 32 nM and the IC50 [18] was > 32 nM. For the same compound, the IC50 [19] was 6.03 nM, the IC50 [20] was 0.96 nM and the IC50 [21] was > 32 nM. It also gave an IC50 [22] of 21 nM, an IC50 [23] of 3.86 nM and an IC50 [24] of 2.52 nM. It also gave an IC50 [25] of 0.607 nM, an IC50 [26] of 11 nM and an IC50 [27] of 0.907 nM. For the same compound, the IC50 [28] was 15.6 nM, the IC50 [29] was 23.8 nM and the IC50 [30] was 2.54 nM. For the same compound, the IC50 [31] was > 32 nM, the IC50 [32] was 30.4 nM and the IC50 [33] was 0.718 nM. The IC50 [34] was 4.49 nM, the IC50 [35] was 1.19 nM and the IC50 [36] was 3.41 nM. The IC50 [37] was > 32 nM, the IC50 [38] was 2.27 nM and the IC50 [39] was 0.646 nM. It also gave an IC50 [40] of 1.06 nM, an IC50 [41] of 3.01 nM and an IC50 [42] of 6.06 nM. For the same compound, the IC50 [43] was 1.07 nM, the IC50 [44] was 0.201 nM and the IC50 [45] was 0.719 nM. For the same compound, the IC50 [46] was 1.2 nM, the IC50 [47] was 5.47 nM and the IC50 [48] was 3.04 nM. The IC50 [49] was 0.111 nM.

Source: ChEMBL document CHEMBL1201861, “Genomics of Drug Sensitity in Cancer screening data, Wellcome Trust Sanger Institute”
